Molecules are shown by their SMILES. Where only a bound is given, the exact number is not on record here.

The target of the first test is T1, human DGAT2 (hDGAT2) (Homo sapiens, UniProt Q96PD7).
T1 construct: made in house; host or cells: Sf-9 insect cells (baculovirus), membrane fraction
T1 sequence (Q96PD7 1-388): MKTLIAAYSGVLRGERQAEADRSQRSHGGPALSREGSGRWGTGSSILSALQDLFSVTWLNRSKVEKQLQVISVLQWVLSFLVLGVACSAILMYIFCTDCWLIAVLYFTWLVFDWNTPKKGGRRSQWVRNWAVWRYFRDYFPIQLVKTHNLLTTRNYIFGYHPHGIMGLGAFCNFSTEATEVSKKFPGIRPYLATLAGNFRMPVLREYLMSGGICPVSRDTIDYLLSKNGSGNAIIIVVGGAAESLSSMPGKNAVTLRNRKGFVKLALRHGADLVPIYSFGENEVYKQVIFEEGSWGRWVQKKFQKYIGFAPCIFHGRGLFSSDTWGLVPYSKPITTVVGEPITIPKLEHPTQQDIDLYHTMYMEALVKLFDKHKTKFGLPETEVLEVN
The test can be described thus: DGAT2 Enzymatic Activity Assay. The class given is biochemical. To be noted: membrane prep of Sf-9 cells expressing hDGAT2; 25 μM diolein, 5 μM 13C oleoyl-CoA; 13C18-triolein by LC/MS/MS; read-out: DGAT2 IC50. In outline: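 Membranes from Sf-9 cells expressing untagged human DGAT2 (8 ng/μL) incubated at rt in 100 mM Tris·Cl pH 7.0, 20 mM MgCl2, 5% ethanol with 25 μM diolein and 5 μM 13C oleoyl-CoA. 13C18-triolein product quantified by LC/MS/MS against 13C21-triolein internal standard; IC50 by 4-parameter fit.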
As a reminder, the IC50 is the concentration at which inhibition is half-maximal. In the case of `CCOc1cc(-n2c(=O)n(C(C)C)c3cc(C(=O)NC4(C(F)F)CCS(=O)(=O)CC4)c(F)cc32)c(F)cn1` [Example 117, N-(4-(difluoromethyl)-1,1-dioxidotetrahydro-2H-thiopyran-4-yl)-1-(2-ethoxy-5-fluoropyridin-4-yl)-6-fluoro-3-isopropyl-2-oxo-2,3-dihydro-1H-benzo[d]imidazole-5-carboxamide], the half-inhibitory concentration (IC50) was 27 nM.
Turning to `CC(C)n1c(=O)n(-c2cccc(S(C)(=O)=O)c2)c2ccc(C(=O)NC3(C)CCS(=O)(=O)CC3)cc21` [Example 58, 3-isopropyl-N-(4-methyl-1,1-dioxidotetrahydro-2H-thiopyran-4-yl)-1-(3-(methylsulfonyl)phenyl)-2-oxo-2,3-dihydro-1H-benzo[d]imidazole-5-carboxamide], the IC50 was over 9990 nM.
Still for that read-out and setting: for `CC(C)n1c(=O)n(-c2cccc(OC(F)F)c2)c2ccc(C(=O)N[C@H]3CCC[C@@H]3O)cc21` [Example 28, 1-[3-(difluoromethoxy)phenyl]-N-[(1S,2S)-2-hydroxycyclopentyl]-3-isopropyl-2-oxo-benzimidazole-5-carboxamide] the value was 779 nM.
On the same count and under the same terms, the same measure for `CC(C)n1c(=O)n(-c2cccc(OC(F)F)c2)c2ccc(C(=O)N[C@H]3CCOC[C@@H]3O)cc21` [Example 29, 1-[3-(difluoromethoxy)phenyl]-N-[(3R,4S)-3-hydroxytetrahydropyran-4-yl]-3-isopropyl-2-oxo-benzimidazole-5-carboxamide]: 1260 nM; for `Cc1nc2ccc(-n3c(=O)n(C(C)C)c4cc(C(=O)NC5(C)CS(=O)(=O)C5)ccc43)cc2o1` [Example 49, 3-isopropyl-N-(3-methyl-1,1-dioxidothietan-3-yl)-1-(2-methylbenzo[d]oxazol-6-yl)-2-oxo-2,3-dihydro-1H-benzo[d]imidazole-5-carboxamide]: over 10000 nM; for `C[C@@]1(NC(=O)c2ccc3c(c2)n(C2CCC2)c(=O)n3-c2cccc(OC(F)F)c2)CCS(=O)(=O)C1` [Example 37, (R)-3-Cyclobutyl-1-(3-(difluoromethoxy)phenyl)-N-(3-methyl-1,1-dioxidotetrahydrothiophen-3-yl)-2-oxo-2,3-dihydro-1H-benzo[d]imidazole-5-carboxamide]: 64 nM.
Consider `CC(C)n1c(=O)n(-c2cccc(OC(F)F)c2)c2ccc(C(=O)NC3(C)CCS(=O)(=O)CC3)c(F)c21` [Example 126, 1-(3-(Difluoromethoxy)phenyl)-4-fluoro-3-isopropyl-N-(4-methyl-1,1-dioxidotetrahydro-2H-thiopyran-4-yl)-2-oxo-2,3-dihydro-1H-benzo[d]imidazole-5-carboxamide], for which the IC50 is 257 nM.
`CCOc1cccc(-n2c(=O)n(C(C)C)c3cc(C(=O)NC4(C)CS(=O)(=O)C4)cnc32)c1` [Example 96, 3-(3-ethoxyphenyl)-1-isopropyl-N-(3-methyl-1,1-dioxo-thietan-3-yl)-2-oxo-imidazo[4,5-b]pyridine-6-carboxamide]: the IC50 amounted to 93 nM.
As for `CC(C)n1c(=O)n(-c2cccc(OC(F)F)c2)c2cc(F)c(C(=O)N[C@]3(C)CCS(=O)(=O)C3)cc21` [Example 113, (R)-1-(3-(Difluoromethoxy)phenyl)-6-fluoro-3-isopropyl-N-(3-methyl-1,1-dioxidotetrahydrothiophen-3-1)-2-oxo-2,3-dihydro-1H-benzo[d]imidazole-5-carboxamide], the IC50 is 78 nM.
The same measure, in the same setting: the same measure for `CCC(C)n1c(=O)n(-c2cccc(OC(F)F)c2)c2ccc(C(=O)NC3(C)CS(=O)(=O)C3)cc21` (single isomer, unassigned) [Example 46a, 3-(sec-butyl)-1-(3-(difluoromethoxy)phenyl)-N-(3-methyl-1,1-dioxidothietan-3-yl)-2-oxo-2,3-dihydro-1H-benzo[d]imidazole-5-carboxamide]: 81 nM.
Consider `CC(n1c(=O)n(-c2cc(OC(F)(F)F)ccc2F)c2ccc(C(=O)NC3(C)CCS(=O)(=O)CC3)cc21)C(C)(C)O` (single isomer, unassigned) [Example 71a, 1-(2-fluoro-5-(trifluoromethoxy)phenyl)-3-(3-hydroxy-3-methylbutan-2-yl)-N-(4-methyl-1,1-dioxidotetrahydro-2H-thiopyran-4-yl)-2-oxo-2,3-dihydro-1H-benzo[d]imidazole-5-carboxamide], for which the IC50 is 71 nM.
On to `CC(n1c(=O)n(-c2cccc(OCC(F)F)c2)c2ccc(C(=O)NC3(C)CCS(=O)(=O)CC3)cc21)C(C)(C)O` (single isomer, unassigned) [Example 68a, 1-(3-(2,2-difluoroethoxy)phenyl)-3-(3-hydroxy-3-methylbutan-2-yl)-N-(4-methyl-1,1-dioxidotetrahydro-2H-thiopyran-4-yl)-2-oxo-2,3-dihydro-1H-benzo[d]imidazole-5-carboxamide], for which the half-maximal inhibitory concentration (IC50) was determined as 4.1 nM.
For `CC1(NC(=O)c2ccc3c(c2)n(CC(F)(F)F)c(=O)n3-c2cccc(OC(F)F)c2)CS(=O)(=O)C1` [Example 43, 1-(3-(Difluoromethoxy)phenyl)-N-(3-methyl-1,1-dioxidothietan-3-yl)-2-oxo-3-(2,2,2-trifluoroethyl)-2,3-dihydro-1H-benzo[d]imidazole-5-carboxamide], the 50% inhibitory concentration (IC50) came to 202 nM.
As to `CC(C)Oc1cc(-n2c(=O)n(C(C)C)c3cc(C(=O)NC4(C)CCS(=O)(=O)CC4)ccc32)c(F)cn1` [Example 51, 1-(5-fluoro-2-isopropoxypyridin-4-yl)-3-isopropyl-N-(4-methyl-1,1-dioxidotetrahydro-2H-thiopyran-4-yl)-2-oxo-2,3-dihydro-1H-benzo[d]imidazole-5-carboxamide], the half-inhibitory concentration (IC50) turned out to be 251 nM.

Staying with this test, now noted: membrane prep of Sf-9 cells expressing hDGAT2; 25 μM diolein, 5 μM 13C oleoyl-CoA; 13C18-triolein by LC/MS/MS; read-out: Human DGAT2 IC50.
For the compound `CC(C)Oc1cccc(-n2c(=O)n(C(C)C)c3cc(C(=O)NC4(C)CS(=O)(=O)C4)ccc32)c1` [Example 6, 1-(3-isopropoxyphenyl)-3-isopropyl-N-(3-methyl-1,1-dioxo-thietan-3-yl)-2-oxo-benzimidazole-5-carboxamide], the IC50 was 88 nM.
With `CC(C)n1c(=O)n(-c2cc(OC(F)F)ccc2F)c2ccc(C(=O)NC3(C)CCS(=O)(=O)CC3)cc21` [Example 79, 1-(5-(Difluoromethoxy)-2-fluorophenyl)-3-isopropyl-N-(4-methyl-1,1-dioxidotetrahydro-2H-thiopyran-4-yl)-2-oxo-2,3-dihydro-1H-benzo[d]imidazole-5-carboxamide], the IC50 was determined as 2.1 nM.
On the same count and under the same terms, the same measure for `CCOc1cc(-n2c(=O)n(C(C)C)c3cc(C(=O)NC4(C)CCS(=O)(=O)CC4)ccc32)c(F)cn1` [Example 15, 1-(2-Ethoxy-5-fluoropyridin-4-yl)-3-isopropyl-N-(4-methyl-1,1-dioxidotetrahydro-2H-thiopyran-4-yl)-2-oxo-2,3-dihydro-1H-benzo[d]imidazole-5-carboxamide]: 6.7 nM.
Turning to `CC(C)n1c(=O)n(-c2cccc(OC(F)F)c2)c2ccc(C(=O)NC3(C)CS(=O)(=O)C3)nc21` [Example 107, 1-(3-(difluoromethoxy)phenyl)-3-isopropyl-N-(3-methyl-1,1-dioxidothietan-3-yl)-2-oxo-2,3-dihydro-1H-imidazo[4,5-b]pyridine-5-carboxamide], the IC50 amounted to 1080 nM.
Still for that read-out and setting: for `CC(C)n1c(=O)n(-c2cccc(OC3CC3)c2)c2ccc(C(=O)NC3(C)CS(=O)(=O)C3)cc21` [Example 14, 1-[3-(cyclopropoxy)phenyl]-3-isopropyl-N-(3-methyl-1,1-dioxo-thietan-3-yl)-2-oxo-benzimidazole-5-carboxamide] the value was 15 nM; for `CC(C)n1c(=O)n(-c2cc(OC(F)F)ncc2F)c2ccc(C(=O)NC3(C)CCS(=O)(=O)CC3)cc21` [Example 5, 1-(2-(Difluoromethoxy)-5-fluoropyridin-4-yl)-3-isopropyl-N-(4-methyl-1,1-dioxidotetrahydro-2H-thiopyran-4-yl)-2-oxo-2,3-dihydro-1H-benzo[d]imidazole-5-carboxamide], 34 nM; for `CC(C)n1c(=O)n(-c2cc(OC(F)F)ccn2)c2ccc(C(=O)NC3(C)CS(=O)(=O)C3)cc21` [Example 12, 1-[4-(difluoromethoxy)-2-pyridyl]-3-isopropyl-N-(3-methyl-1,1-dioxo-thietan-3-yl)-2-oxo-benzimidazole-5-carboxamide], 122 nM.
With `CC(C)n1c(=O)n(-c2cccc(OC(F)F)c2)c2cnc(C(=O)NC3(C)CS(=O)(=O)C3)cc21` [Example 105, 3-(3-(difluoromethoxy)phenyl)-1-isopropyl-N-(3-methyl-1,1-dioxidothietan-3-yl)-2-oxo-2,3-dihydro-1H-imidazo[4,5-c]pyridine-6-carboxamide], the IC50 is 1800 nM.

(Values after patent US11976061B2, “Preparation of benzimidazolone derivatives as novel diacylglyceride O-acyltransferase 2 inhibitors” (Merck Sharp & Dohme LLC, priority 2020, dated 2024).)
